ChEMBL document CHEMBL1138828, “A bivalent ligand (KDN-21) reveals spinal delta and kappa opioid receptors are organized as heterodimers that give rise to delta(1) and kappa(2) phenotypes. Selective targeting of delta-kappa heterodimers” (J Med Chem, 2004)

Key:
Opioid receptor [1] = molecular target: T1, Opioid receptor (Mus musculus, UniProt P42866+P32300+P33534); assay: Compound was tested for binding affinity on intact HEK cells using [3H]diprenorphine as radioligand co-expressed with delta and kappa opioid receptors; format: cell-based; conditions: hek293
Mus musculus [2] = assay: Antagonism of kappa2 opioid agonist (bremazocine)-induced antinociception upon intrathecal administration in mice at a dose of 30 pmol; format: functional
Mus musculus [3] = assay: Antagonism of kappa1 opioid agonist (U-50,488)-induced antinociception upon intrathecal administration in mice at a dose of 30 pmol; format: functional
Opioid receptor [4] = molecular target: T1, Opioid receptor; assay: Compound was tested for binding affinity on intact HEK cells using [3H]diprenorphine as radioligand singly expressed with delta or kappa receptors.; format: cell-based; conditions: hek293
Mus musculus [5] = assay: Antagonism of delta1 opioid agonist (DPDPE)-induced antinociception upon intrathecal administration in mice at a dose of 30 pmol; format: functional
Mus musculus [6] = assay: Antagonism of delta2 opioid agonist (deltorphin II)-induced antinociception upon intrathecal administration in mice at a dose of 30 pmol; format: functional
Mus musculus [7] = assay: Antagonism of kappa1 opioid agonist (U-50,488)-induced antinociception upon intrathecal administration in mice at a dose of 25 pmol; format: functional
Mus musculus [8] = assay: Antagonism of kappa2 opioid agonist (bremazocine)-induced antinociception upon intrathecal administration in mice at a dose of 25 pmol; format: functional
Mus musculus [9] = assay: Antagonism of delta2 opioid agonist (deltorphin II)-induced antinociception upon intrathecal administration in mice at a dose of 25 pmol; format: functional
Mus musculus [10] = assay: Antagonism of delta1 opioid agonist (DPDPE)-induced antinociception upon intrathecal administration in mice at a dose of 25 pmol; format: functional
Opioid receptor [11] = molecular target: T1, Opioid receptor; assay: Compound was tested for binding affinity on intact HEK cells using [3H]diprenorphine as radioligand co-expressed with delta and kappa opioid receptor; format: cell-based; conditions: hek293
Opioid receptor [12] = molecular target: T1, Opioid receptor; assay: Compound was tested for binding affinity on intact HEK cells using [3H]diprenorphine as radioligand singly expressed with delta or kappa receptor; format: cell-based, Homo sapiens; conditions: hek293
Mus musculus [13] = assay: Antagonism of kappa1 opioid agonist (U-50,488)-induced antinociception upon intrathecal administration in mice at a dose of 50 pmol; format: functional
Mus musculus [14] = assay: Antagonism of delta2 opioid agonist (deltorphin II)-induced antinociception upon intrathecal administration in mice at a dose of 50 pmol; format: functional
Mus musculus [15] = assay: Antagonism of kappa2 opioid agonist (bremazocine)-induced antinociception upon intrathecal administration in mice at a dose of 50 pmol; format: functional
Mus musculus [16] = assay: Antagonism of delta1 opioid agonist (DPDPE)-induced antinociception upon intrathecal administration in mice at a dose of 50 pmol; format: functional
Mus musculus [17] = assay: Antagonism of delta2 opioid agonist (deltorphin II)-induced antinociception upon intrathecal administration in mice at a dose of 2.5 pmol; format: functional
Mus musculus [18] = assay: Antagonism of delta1 opioid agonist (DPDPE)-induced antinociception upon intrathecal administration in mice at a dose of 2.5 pmol; format: functional
Mus musculus [19] = assay: Antagonism of kappa2 opioid agonist (bremazocine)-induced antinociception upon intrathecal administration in mice at a dose of 2.5 pmol; format: functional
Mus musculus [20] = assay: Antagonism of delta2 opioid agonist (deltorphin II)-induced antinociception upon intrathecal administration in mice at a dose of 1.0 pmol; format: functional
Mus musculus [21] = assay: Antagonism of kappa2 opioid agonist (bremazocine)-induced antinociception upon intrathecal administration in mice at a dose of 1.0 pmol; format: functional
Mus musculus [22] = assay: Antagonism of delta1 opioid agonist (DPDPE)-induced antinociception upon intrathecal administration in mice at a dose of 1.0 pmol; format: functional
Mus musculus [23] = assay: Antagonism of kappa1 opioid agonist (U-50,488)-induced antinociception upon intrathecal administration in mice at a dose of 2.5 pmol; format: functional
Mus musculus [24] = assay: Antagonism of kappa1 opioid agonist (U-50,488)-induced antinociception upon intrathecal administration in mice at a dose of 250 pmol; format: functional
Mus musculus [25] = assay: Antagonism of delta1 opioid agonist (DPDPE)-induced antinociception upon intrathecal administration in mice at a dose of 250 pmol; format: functional
Mus musculus [26] = assay: Antagonism of kappa2 opioid agonist (bremazocine)-induced antinociception upon intrathecal administration in mice at a dose of 250 pmol; format: functional
Mus musculus [27] = assay: Antagonism of delta2 opioid agonist (deltorphin II)-induced antinociception upon intrathecal administration in mice at a dose of 250 pmol; format: functional

SMILES: N/C(=N\CCCNC(=O)CNC(=O)CNC(=O)CCC(=O)NCC(=O)NCC(=O)Nc1cccc2c3c([nH]c12)[C@@H]1Oc2c(O)ccc4c2C12CCN(CC1CC1)C(C4)[C@]2(O)C3)Nc1ccc2[nH]c3c(c2c1)C[C@@]1(O)C2Cc4ccc(O)c5c4C1(CCN2CC1CC1)[C@H]3O5 (some centres undefined)
- Ki (Opioid receptor [1]): 0.3 nM
- ED50 (Mus musculus [2]): 50.4 nM mouse-1
- ED50 (Mus musculus [3]): 1.9 nM mouse-1
- Ki (Opioid receptor [4]): 63 nM
- ED50 (Mus musculus [5]): 8 nM mouse-1
- ED50 (Mus musculus [6]): 1.2 nM mouse-1

SMILES: O=C1/C(=C/c2ccccc2)C[C@@]2(O)[C@H]3Cc4ccc(O)c5c4[C@@]2(CCN3CC2CC2)[C@H]1O5 [BNTX]
- ED50 (Mus musculus [7]): 0.9 nM mouse-1
- ED50 (Mus musculus [8]): 49.8 nM mouse-1
- ED50 (Mus musculus [9]): 1 nM mouse-1
- ED50 (Mus musculus [10]): 10.6 nM mouse-1

SMILES: O=C(CCC(=O)NCC(=O)NCC(=O)Nc1cccc2c3c([nH]c12)[C@@H]1Oc2c(O)ccc4c2C12CCN(CC1CC1)C(C4)[C@]2(O)C3)NCC(=O)NCC(=O)NCCCNC(=O)c1cccc2c3c([nH]c12)[C@@H]1Oc2c(O)ccc4c2C12CCN(CC1CC1)C(C4)[C@]2(O)C3 (some centres undefined)
- ED50 (Mus musculus [8]): 2.4 nM mouse-1
- Ki (Opioid receptor [11]): > 1000 nM
- ED50 (Mus musculus [9]): 2.4 nM mouse-1
- Ki (Opioid receptor [12]): 199 nM
- ED50 (Mus musculus [10]): 1.1 nM mouse-1

SMILES: Oc1ccc2c3c1O[C@H]1c4oc5ccccc5c4C[C@@]4(O)[C@@H](C2)N(CC2CC2)CC[C@]314 [NALTRIBEN]
- ED50 (Mus musculus [13]): 0.8 nM mouse-1
- ED50 (Mus musculus [14]): 9.1 nM mouse-1
- ED50 (Mus musculus [15]): 5.8 nM mouse-1
- ED50 (Mus musculus [16]): 1 nM mouse-1

SMILES: N/C(=N\CCCCCNC(=O)CNC(=O)CNC(=O)CCC(=O)NCC(=O)NCC(=O)Nc1cccc2c3c([nH]c12)[C@@H]1Oc2c(O)ccc4c2C12CCN(CC1CC1)C(C4)[C@]2(O)C3)Nc1ccc2[nH]c3c(c2c1)C[C@@]1(O)C2Cc4ccc(O)c5c4C1(CCN2CC1CC1)[C@H]3O5 (some centres undefined)
- Ki (Opioid receptor [11]): 4.8 nM
- ED50 (Mus musculus [17]): 2.1 nM mouse-1
- Ki (Opioid receptor [12]): 3.3 nM
- ED50 (Mus musculus [18]): 2.2 nM mouse-1
- ED50 (Mus musculus [19]): 4.1 nM mouse-1

SMILES: N/C(=N\CCCNC(=O)CNC(=O)CCC(=O)NCC(=O)Nc1cccc2c3c([nH]c12)[C@@H]1Oc2c(O)ccc4c2[C@@]12CCN(CC1CC1)[C@H](C4)[C@]2(O)C3)Nc1ccc2[nH]c3c(c2c1)C[C@@]1(O)[C@H]2Cc4ccc(O)c5c4[C@@]1(CCN2CC1CC1)[C@H]3O5
- ED50 (Mus musculus [20]): 1.9 nM mouse-1
- Ki (Opioid receptor [1]): 315 nM
- ED50 (Mus musculus [21]): 2.5 nM mouse-1
- ED50 (Mus musculus [22]): 2 nM mouse-1
- Ki (Opioid receptor [4]): 6.3 nM

SMILES: N/C(=N\CCCNC(=O)CNC(=O)CNC(=O)CCC(=O)NCC(=O)NCC(=O)Nc1ccc2[nH]c3c(c2c1)C[C@]1(O)C2Cc4ccc(O)c5c4C1(CCN2CC1CC1)[C@@H]3O5)Nc1ccc2[nH]c3c(c2c1)C[C@]1(O)C2Cc4ccc(O)c5c4C1(CCN2CC1CC1)[C@@H]3O5 (some centres undefined)
- Ki (Opioid receptor [1]): > 1000 nM
- ED50 (Mus musculus [2]): 14.5 nM mouse-1
- Ki (Opioid receptor [12]): 54.8 nM
- ED50 (Mus musculus [5]): 1.1 nM mouse-1
- ED50 (Mus musculus [6]): 1 nM mouse-1

SMILES: NC(=NCCNC(=O)CNC(=O)CNC(=O)CCC(=O)NCC(=O)NCC(=O)Nc1cccc2c3c([nH]c12)[C@@H]1Oc2c(O)ccc4c2C12CCN(CC1CC1)C(C4)[C@]2(O)C3)Nc1ccc2[nH]c3c(c2c1)C[C@@]1(O)C2Cc4ccc(O)c5c4C1(CCN2CC1CC1)[C@H]3O5 (some centres undefined)
- Ki (Opioid receptor [1]): 0.5 nM
- ED50 (Mus musculus [17]): 1.1 nM mouse-1
- Ki (Opioid receptor [4]): 58.8 nM
- ED50 (Mus musculus [18]): 3.4 nM mouse-1
- ED50 (Mus musculus [19]): 1.7 nM mouse-1

SMILES: NC(=NCCCCNC(=O)CNC(=O)CNC(=O)CCC(=O)NCC(=O)NCC(=O)Nc1cccc2c3c([nH]c12)[C@@H]1Oc2c(O)ccc4c2C12CCN(CC1CC1)C(C4)[C@]2(O)C3)Nc1ccc2[nH]c3c(c2c1)C[C@@]1(O)C2Cc4ccc(O)c5c4C1(CCN2CC1CC1)[C@H]3O5 (some centres undefined)
- Ki (Opioid receptor [1]): 1.4 nM
- ED50 (Mus musculus [17]): 2.2 nM mouse-1
- ED50 (Mus musculus [23]): 0.6 nM mouse-1
- Ki (Opioid receptor [12]): 1.1 nM
- ED50 (Mus musculus [18]): 6.3 nM mouse-1
- ED50 (Mus musculus [19]): 1.7 nM mouse-1

SMILES: Oc1ccc2c3c1O[C@H]1c4[nH]c5c(c4C[C@@]4(O)[C@@H](C2)N(CC2CC2)CC[C@]314)C[C@@]1(O)[C@H]2Cc3ccc(O)c4c3[C@@]1(CCN2CC1CC1)[C@H]5O4 [NORBINALTORPHIMINE]
- ED50 (Mus musculus [24]): 5.3 nM mouse-1
- ED50 (Mus musculus [25]): 12.4 nM mouse-1
- ED50 (Mus musculus [26]): 129.5 nM mouse-1
- ED50 (Mus musculus [27]): 1 nM mouse-1
